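Each compound was tested at five concentrations against cells in 96-well plates for 48 hours. GI50: concentration for 50% inhibition of growth.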 Calls of active or inactive are those of the source. Cut-off read from the data, not from the text of the source: active = GI50 up to about 1.1 µM and inactive = higher.
Columns and labels:
Test in all cases: NCI anticancer screen, dose series, 48 h
[1] = test system: UACC-257
[2] = test system: HOP-92
[3] = test system: A549
[4] = test system: K562
[5] = test system: NCI-H23
[6] = test system: COLO 205
[7] = test system: SW-620
[8] = test system: SF-539
[9] = test system: SNB-78
[10] = test system: HCC 2998
[11] = test system: U-251
[12] = test system: SK-MEL-2
[13] = test system: Malme-3M
[14] = test system: UO-31
[15] = test system: SK-MEL-5
[16] = test system: HCT-15
[17] = test system: KM-20L2
[18] = test system: SNB-75
[19] = test system: UACC-62
[20] = test system: SF-295
[21] = test system: SK-OV-3
[22] = test system: SN12C
[23] = test system: HT-29
[24] = test system: RPMI-8226
[25] = test system: SF-268
[26] = test system: RXF 393
[27] = test system: M19-MEL
[28] = test system: IGROV-1
[29] = test system: KM12
[30] = test system: DMS-114
[31] = test system: MOLT-4
[32] = test system: TK-10
[33] = test system: OVCAR-8
[34] = test system: HCT-116
[35] = test system: OVCAR-5
[36] = test system: EKVX
[37] = test system: 786-0
[38] = test system: NCI-H226
[39] = test system: OVCAR-3
[40] = test system: SK-MEL-28
[41] = test system: ACHN
[42] = test system: SNB-19
[43] = test system: LXFL 529
[44] = test system: SR
[45] = test system: MDA-N
[46] = test system: T47D
[47] = test system: MCF7
[48] = test system: A498
[49] = test system: NCI/ADR-RES
[50] = test system: DU-145
[51] = test system: CAKI-1
[52] = test system: OVCAR-4
[53] = test system: PC-3
[54] = test system: CCRF-CEM
[55] = test system: Hs-578T
[56] = test system: MDA-MB-231
[57] = test system: LOX IMVI
[58] = test system: NCI-H522
[59] = test system: HOP-62
[60] = test system: HL-60
[61] = test system: NCI-H460
[62] = test system: M14
[63] = test system: MDA-MB-435
[64] = test system: BT-549
[65] = test system: DLD-1
[66] = test system: DMS-273
[67] = test system: HOP-18

With Cn1c(=O)c2nc3c4ccccc4c(=O)n(C)c3nc2n(C)c1=O the GI50 [1] was > 100 µM (inactive), the GI50 [2] was > 100 µM (inactive) and the GI50 [3] was > 100 µM (inactive). For the same compound, the GI50 [4] was > 100 µM (inactive), the GI50 [5] was > 100 µM (inactive) and the GI50 [6] was > 100 µM (inactive). The GI50 [7] was > 100 µM (inactive), the GI50 [8] was > 100 µM (inactive) and the GI50 [9] was > 100 µM (inactive). The GI50 [10] was > 100 µM (inactive), the GI50 [11] was > 100 µM (inactive) and the GI50 [12] was > 100 µM (inactive). For the same compound, the GI50 [13] was > 100 µM (inactive), the GI50 [14] was > 100 µM (inactive) and the GI50 [15] was > 100 µM (inactive). The GI50 [16] was over 100 µM, the GI50 [17] was > 100 µM (inactive) and the GI50 [18] was > 100 µM (inactive). The GI50 [19] was > 100 µM (inactive), the GI50 [20] was > 100 µM (inactive) and the GI50 [21] was > 100 µM (inactive). For the same compound, the GI50 [22] was > 100 µM (inactive), the GI50 [23] was > 100 µM (inactive) and the GI50 [24] was > 100 µM (inactive). The GI50 [25] was > 100 µM (inactive), the GI50 [26] was > 100 µM (inactive) and the GI50 [27] was > 100 µM (inactive). The GI50 [28] was > 100 µM (inactive), the GI50 [29] was > 100 µM (inactive) and the GI50 [30] was > 100 µM (inactive). The GI50 [31] was > 100 µM (inactive), the GI50 [32] was > 100 µM (inactive) and the GI50 [33] was > 100 µM (inactive). For the same compound, the GI50 [34] was > 100 µM (inactive), the GI50 [35] was > 100 µM (inactive) and the GI50 [36] was > 100 µM (inactive). For the same compound, the GI50 [37] was > 100 µM (inactive), the GI50 [38] was > 100 µM (inactive) and the GI50 [39] was > 100 µM (inactive). For the same compound, the GI50 [40] was > 100 µM (inactive), the GI50 [41] was > 100 µM (inactive) and the GI50 [42] was > 100 µM (inactive). For the same compound, the GI50 [43] was > 100 µM (inactive) and the GI50 [44] was > 100 µM (inactive).
With Cn1ccnc1Sc1ccc(/C=N/NC(=O)c2ccccc2O)cc1[N+](=O)[O-] the GI50 [1] was > 100 µM (inactive), the GI50 [2] was > 100 µM (inactive) and the GI50 [3] was > 100 µM (inactive). The GI50 [45] was 61.5 µM (inactive), the GI50 [46] was 80.2 µM (inactive) and the GI50 [47] was 84.3 µM (inactive). The GI50 [4] was 0.298 µM (active), the GI50 [5] was 56.9 µM (inactive) and the GI50 [48] was > 100 µM (inactive). The GI50 [6] was 22.2 µM (inactive), the GI50 [7] was > 100 µM (inactive) and the GI50 [8] was 60.7 µM (inactive). For the same compound, the GI50 [49] was > 100 µM (inactive), the GI50 [10] was 96.4 µM (inactive) and the GI50 [11] was 66.4 µM (inactive). The GI50 [12] was 37.8 µM (inactive), the GI50 [50] was > 100 µM (inactive) and the GI50 [13] was 40.9 µM (inactive). The GI50 [51] was 72.8 µM (inactive), the GI50 [14] was 79.1 µM (inactive) and the GI50 [15] was 55.7 µM (inactive). For the same compound, the GI50 [16] was 39.6 µM, the GI50 [52] was 72.6 µM (inactive) and the GI50 [18] was > 100 µM (inactive). For the same compound, the GI50 [53] was 56.9 µM (inactive), the GI50 [54] was 37.6 µM (inactive) and the GI50 [19] was 86.1 µM (inactive). For the same compound, the GI50 [20] was > 100 µM (inactive), the GI50 [55] was 92.5 µM (inactive) and the GI50 [56] was > 100 µM (inactive). The GI50 [21] was > 100 µM (inactive), the GI50 [57] was 65.2 µM (inactive) and the GI50 [58] was 41.7 µM (inactive). For the same compound, the GI50 [22] was 55 µM (inactive), the GI50 [23] was 33.7 µM (inactive) and the GI50 [24] was 0.0723 µM (active). For the same compound, the GI50 [59] was 73.6 µM (inactive), the GI50 [25] was 48.8 µM (inactive) and the GI50 [26] was > 100 µM (inactive). The GI50 [28] was 35.1 µM (inactive), the GI50 [60] was 44.9 µM (inactive) and the GI50 [61] was 69.5 µM (inactive). The GI50 [29] was > 100 µM (inactive), the GI50 [62] was > 100 µM (inactive) and the GI50 [31] was 0.428 µM (active). For the same compound, the GI50 [32] was > 100 µM (inactive), the GI50 [63] was 57 µM (inactive) and the GI50 [33] was > 100 µM (inactive). For the same compound, the GI50 [34] was 70.1 µM (inactive), the GI50 [35] was > 100 µM (inactive) and the GI50 [64] was 89.7 µM (inactive). The GI50 [36] was 94 µM (inactive), the GI50 [37] was 61.4 µM (inactive) and the GI50 [38] was > 100 µM (inactive). For the same compound, the GI50 [39] was > 100 µM (inactive), the GI50 [40] was > 100 µM (inactive) and the GI50 [41] was > 100 µM (inactive). For the same compound, the GI50 [42] was > 100 µM (inactive) and the GI50 [44] was 2.27 µM (inactive).
With N/C(=N\O)N/N=C\c1c(O)cc(O)cc1O the GI50 [1] was 99.3 µM (inactive), the GI50 [2] was 54.8 µM (inactive) and the GI50 [3] was 45.1 µM (inactive). The GI50 [47] was 36.4 µM (inactive), the GI50 [4] was 29.2 µM (inactive) and the GI50 [5] was > 75 µM (inactive). For the same compound, the GI50 [48] was > 100 µM (inactive), the GI50 [6] was > 72.9 µM (inactive) and the GI50 [7] was > 70.3 µM (inactive). The GI50 [8] was > 100 µM (inactive), the GI50 [49] was 79.6 µM (inactive) and the GI50 [9] was > 100 µM (inactive). For the same compound, the GI50 [10] was 73.8 µM (inactive), the GI50 [11] was 41.6 µM (inactive) and the GI50 [12] was > 100 µM (inactive). For the same compound, the GI50 [13] was > 100 µM (inactive), the GI50 [51] was > 100 µM (inactive) and the GI50 [65] was > 82.8 µM (inactive). The GI50 [14] was 26 µM (inactive), the GI50 [15] was 50.6 µM (inactive) and the GI50 [16] was 63.4 µM. The GI50 [17] was > 100 µM (inactive), the GI50 [52] was > 68.4 µM (inactive) and the GI50 [18] was > 47.6 µM (inactive). The GI50 [54] was 31.8 µM (inactive), the GI50 [19] was 15.8 µM (inactive) and the GI50 [20] was > 46.8 µM (inactive). For the same compound, the GI50 [21] was > 89.1 µM (inactive), the GI50 [57] was 60.8 µM (inactive) and the GI50 [58] was 39.7 µM (inactive). For the same compound, the GI50 [22] was 78.7 µM (inactive), the GI50 [23] was 93.8 µM (inactive) and the GI50 [24] was 15.6 µM (inactive). The GI50 [59] was > 87.9 µM (inactive), the GI50 [25] was > 100 µM (inactive) and the GI50 [26] was > 100 µM (inactive). For the same compound, the GI50 [27] was > 71.8 µM (inactive), the GI50 [28] was 44.5 µM (inactive) and the GI50 [66] was 14.3 µM (inactive). The GI50 [60] was 26.1 µM (inactive), the GI50 [61] was 49.5 µM (inactive) and the GI50 [29] was 36.4 µM (inactive). For the same compound, the GI50 [30] was 44.2 µM (inactive), the GI50 [31] was 39.8 µM (inactive) and the GI50 [33] was 39.4 µM (inactive). For the same compound, the GI50 [34] was > 94.2 µM (inactive), the GI50 [35] was > 100 µM (inactive) and the GI50 [36] was > 35.2 µM (inactive). For the same compound, the GI50 [38] was 66.7 µM (inactive), the GI50 [39] was > 65.9 µM (inactive) and the GI50 [40] was > 100 µM (inactive). For the same compound, the GI50 [67] was > 64 µM (inactive) and the GI50 [42] was 65.9 µM (inactive).
CC1=C[P+](Cc2ccccc2)(c2ccccc2)CC1 (stereo not given) was tested, and the GI50 [1] was 27.8 µM (inactive), the GI50 [4] was 93.8 µM (inactive) and the GI50 [5] was 97.1 µM (inactive). The GI50 [6] was 31.7 µM (inactive), the GI50 [9] was > 100 µM (inactive) and the GI50 [12] was 78.7 µM (inactive). For the same compound, the GI50 [65] was > 100 µM (inactive), the GI50 [15] was 30.9 µM (inactive) and the GI50 [52] was > 100 µM (inactive). The GI50 [18] was 61.1 µM (inactive), the GI50 [19] was 64.3 µM (inactive) and the GI50 [20] was > 100 µM (inactive). The GI50 [57] was 77.3 µM (inactive), the GI50 [58] was 67.5 µM (inactive) and the GI50 [23] was 65.2 µM (inactive). The GI50 [24] was 24.1 µM (inactive), the GI50 [27] was 31.8 µM (inactive) and the GI50 [66] was 80.9 µM (inactive). The GI50 [60] was 30.1 µM (inactive), the GI50 [29] was 85.3 µM (inactive) and the GI50 [62] was 71.6 µM (inactive). For the same compound, the GI50 [30] was 28.6 µM (inactive), the GI50 [36] was 80.2 µM (inactive) and the GI50 [39] was 43.2 µM (inactive). The GI50 [43] was 37.7 µM (inactive) and the GI50 [44] was 74.3 µM (inactive).
For CC1[C@@H]2CC=C3[C@H]4CCC5Cc6nc7c(nc6C[C@@]5(C)C4CC(=O)[C@]32CO[C@]12OC(C)(C)CC2O)CC1CC[C@@H]2C3=C[C@H]4O[C@@]5(O[C@@](C)(CO)C[C@@H]5O)C(C)[C@@]4(O)[C@]3(C)[C@@H](O)CC2[C@]1(C)C7 (stereo not given in full), the GI50 [5] was 0.0055 µM (active), the GI50 [48] was 0.00143 µM (active) and the GI50 [10] was 0.0955 µM (active). For the same compound, the GI50 [58] was 0.00121 µM (active), the GI50 [66] was 0.000105 µM (active) and the GI50 [30] was 0.000172 µM (active). For the same compound, the GI50 [32] was 0.034 µM (active) and the GI50 [38] was 0.00273 µM (active).

Reference: ChEMBL document CHEMBL1201862, “PubChem BioAssay data set” (2004)
